This test has as its system 292921-168-R-J2-PDC complex spheroid growth. In words: Anticancer human tumor 292921-168-R-J2-PDC patient-derived pancreatic carcinoma cell line growth inhibition [AhR]. As to conditions: for viability, T/C: stronger effect = lower value; for IC50: curve of compound. The source says: Multicellular complex tumor spheroid response to aryl hydrocarbon receptor antagonists in combination with a variety of drugs and investigational agents in selected tumor cell lines
The current study was undertaken to assess response to aryl hydrocarbon receptor antagonists in combination with standard-of-care drugs and investigational agents in solid tumor complex spheroid models. Complex spheroids include a stromal component modeled by human endothelial cells (HUVEC) and fibroblasts modeled by human mesenchymal stem cells (MSCs). The concentration ranges selected for each drug and investigational agent were based upon clinically achievable concentrations if the clinical Cmax of the agent was known.
Compounds. The drugs and investigational agents: BAY 2416964 (NSC825713), GNF351 (NSC835774), CH-223191 (NSC835775), CPI-455 (NSC825282), aza-TdCyd (NSC777586), decitabine (NSC127716), belinostat (NSC758774), entinostat (NSC756642), pevonedistat (NSC761192), tazemetostat (NSC777109), talazoparib (NSC765396), olaparib (NSC753686), selinexor (NSC780203), nedisertib (M3814, NSC802822), bortezomib (NSC756655), venetoclax (NSC766270), doxorubicin (NSC123127), elimusertib (BAY189344, NSC800525), ceralasertib (AZD6738, NSC777638), TAK-243 (NSC785004), alisertib (NSC759677), etoposide (NSC141540), topotecan (NSC609699), eribulin (NSC707389), gemcitabine (NSC613327), carboplatin (NSC241240), cisplatin (NSC119875), and SN-38 (NSC673596) were obtained from the National Cancer Institute (NCI) Developmental Therapeutics Program Chemical Repository (32). The FDA-approved anticancer drug set is available from the Developmental Therapeutics Program at https://dtp.cancer.gov/organization/dscb/obtaining/available plates.htm. […] The stock solutions were prepared in dimethyl sulfoxide (DMSO, Sigma-Aldrich, St. Louis, MO, cat. D2650), except for the platinum compounds which were prepared in saline (Quality Biological, Gaithersburg, MD, cat. 114-055-101), at 800-fold the tested concentration and stored at -70 degrees C prior to their use. All drugs and investigational agents were tested over a range starting from a high concentration at or near the clinical Cmax and decreasing in half-log increments. If the clinical Cmax for an agent had not been determined, the highest concentration tested was 10 microM (Table 1).
Cell Culture. All cells were maintained in an incubator at 37 degrees C and 5% CO2 with 95% humidity. The PDC lines were cultured according to standard operating procedures established by the NCI PDMR (https://pdmr.cancer.gov). Briefly, all PDCs were thawed and cultured in Matrigel-coated flasks prepared with a working solution of 1X Ham's F-12 nutrient mix, without supplementation (Invitrogen, Waltham, MA, cat. 11765054), 100 U/mL penicillin-streptomycin (Invitrogen, cat. 15140122), and 2.5% Matrigel (Corning Inc., Corning, NY, cat. 354248) for the first three passages. All PDCs were cultured in complete DMEM/F-12 media containing advanced DMEM/F-12 (Invitrogen, cat. 12634028), 4.9% defined fetal bovine serum, heat inactivated (HyClone Laboratories Inc., Logan, UT, cat. SH30070.03HI), 389 ng/mL hydrocortisone (Sigma-Aldrich, cat. H4001), 9.7 ng/mL human EGF recombinant protein (Invitrogen, cat. PHG0313), 23.4 microg/mL adenine (Sigma-Aldrich, cat. A2786), 97.3 U/mL penicillin-streptomycin (Invitrogen, cat. 15140122), 1.9 mM L-glutamine (Invitrogen, cat. 25030081), and 9.7 microM Y-27632 dihydrochloride (Tocris Bioscience, Bristol, United Kingdom, cat. 1254). The PDCs were cultured in complete DMEM/F12 media without 10 microM Y-27632 dihydrochloride for at least two passages prior to the screen. The established cell lines NCI-H1341 and […] were cultured in DMEM/F-12, HEPES (Invitrogen, cat. 11330032), 5% defined fetal bovine serum (HyClone Laboratories Inc., cat. SH30070.03), ITS premix universal culture supplement [insulin (5 microg/mL), transferrin (5 microg/mL), and selenious acid (5 ng/mL)] […]

Values joined by “and” are separate entries in the source; they are usually repeats but may differ in a detail not shown here. Identical values can stand only once.
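Also: spheroids exposed to compounds for seven days after three days of growth.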

Turning to `Cn1ncnc1C1c2n[nH]c(=O)c3cc(F)cc(c23)NC1c1ccc(F)cc1` (stereo not drawn), the IC50 is greater than 100 nM. The viability, T/C (compound 0.000316 µM) was 101% and 103% and 106%. For the same compound, the viability, T/C (compound 0.001 µM) is 103% and 111% and 95.4%. Under “compound 0.00316 µM”, the viability, T/C was 96.3% and 91.7% and 97.4%. In addition, for the setting “compound 0.01 µM”, the viability, T/C is 96.2% and 96.3% and 97.7%. Also, under “compound 0.0316 µM”, the viability, T/C is 88% and 97.5% and 90.3%. For the same compound, the viability, T/C (compound 0.1 µM) is 91.5% and 80.2% and 86%.

Consider `NS(=O)(=O)OCC1CC(n2ccc3c(NC4CCc5ccccc54)ncnc32)CC1O` (stereo not drawn), for which the IC50 is 226 nM and 174 nM and 217 nM. Besides, the viability, T/C (compound 0.0316 µM) is 126% and 115% and 113%. The viability, T/C (compound 0.1 µM) was 106% and 81.2% and 99.9%. Further, the viability, T/C (compound 0.316 µM) is 27.1% and 16.2% and 25.9%. Under “compound 1 µM”, the viability, T/C was 6.6% and 3.53% and 5.82%. Also, the viability, T/C (compound 3.16 µM) was 5.73% and 3.02% and 4.02%. The viability, T/C (compound 10 µM) was 5.17% and 3.01% and 3.79%.

With `Nc1ccccc1NC(=O)c1ccc(CNC(=O)OCc2cccnc2)cc1`, the 50% inhibitory concentration (IC50) was 267 nM and 460 nM and 151 nM. For the same compound, under “compound 0.0316 µM”, the viability, T/C was 76.9% and 70.7% and 72.6%. Besides, the viability, T/C (compound 0.1 µM) is 61.6% and 61% and 53%. Also, the viability, T/C (compound 0.316 µM) was 44.2% and 57.2% and 42.1%. For the same compound, where the note is “compound 1 µM”, the viability, T/C was 38.7% and 39.4% and 26.1%. For the same compound, under “compound 3.16 µM”, the viability, T/C is 24.4% and 26.4% and 21.3%. Besides, the viability, T/C (compound 10 µM) is 11.8% and 10.3% and 8.62%.

In the case of `Nc1ccn(C2OC(CO)C(O)C2(F)F)c(=O)n1` (stereo not drawn), the half-maximal inhibitory concentration (IC50) was less than 31.6 nM. Besides, where the note is “compound 0.0316 µM”, the viability, T/C was 11.7% and 10.6% and 9.71%. For the setting “compound 0.1 µM”, the viability, T/C is 9.82% and 10.9% and 7.67%. Further, the viability, T/C (compound 0.316 µM) is 9.66% and 9.32% and 10.4%. In addition, under “compound 1 µM”, the viability, T/C was 10.1% and 11.1% and 8.88%. The viability, T/C (compound 3.16 µM) is 9.41% and 11.4% and 8.79%. Besides, the viability, T/C (compound 10 µM) was 7.29% and 6.09% and 6.67%.

On to `Nc1ncn(C2CC(O)C(CO)O2)c(=O)n1` (stereo not drawn), for which the IC50 was greater than 1000 nM. The viability, T/C (compound 0.00316 µM) was 107% and 102% and 96.8%. Moreover, the viability, T/C (compound 0.01 µM) is 99.8% and 97.5% and 103%. Besides, the viability, T/C (compound 0.0316 µM) is 95.7% and 100% and 89.4%. For the same compound, under “compound 0.1 µM”, the viability, T/C is 93.7% and 93.1% and 77.7%. Where the note is “compound 0.316 µM”, the viability, T/C is 86.8% and 83% and 89%. Moreover, the viability, T/C (compound 1 µM) was 76.3% and 76.8% and 78.2%.

Take `Nc1ncn(C2CC(O)C(CO)S2)c(=O)n1` (stereo not drawn): the IC50 is greater than 300 nM. Moreover, the viability, T/C (compound 0.000949 µM) was 108% and 106% and 99.4%. In addition, the viability, T/C (compound 0.003 µM) is 111% and 90.8% and 101%. Further, where the note is “compound 0.00949 µM”, the viability, T/C was 107% and 98.6% and 93.5%. Under “compound 0.03 µM”, the viability, T/C is 90.9% and 104% and 96.8%. Besides, the viability, T/C (compound 0.0949 µM) was 90.8% and 93.8% and 95.5%. Further, under “compound 0.3 µM”, the viability, T/C is 88.6% and 81.2% and 78.3%.

`O=C(C=Cc1cccc(S(=O)(=O)Nc2ccccc2)c1)NO`: the IC50 is 424 nM and 553 nM and 249 nM. Also, the viability, T/C (compound 0.0316 µM) was 68.6% and 72.8% and 73.1%. For the same compound, the viability, T/C (compound 0.1 µM) is 60.2% and 62% and 60%. Besides, the viability, T/C (compound 0.316 µM) was 45.1% and 51.2% and 40.3%. The viability, T/C (compound 1 µM) is 40.8% and 41.1% and 34.5%. Besides, the viability, T/C (compound 3.16 µM) was 36.6% and 37.4% and 31.4%. The viability, T/C (compound 10 µM) was 3.45% and 3.29% and 1.56%.

Consider `O=C(C=Cn1cnc(-c2cc(C(F)(F)F)cc(C(F)(F)F)c2)n1)NNc1cnccn1`, for which the IC50 was 191 nM and 154 nM and 129 nM. Further, the viability, T/C (compound 0.00949 µM) is 104% and 95% and 86.6%. Where the note is “compound 0.03 µM”, the viability, T/C was 97.2% and 93% and 80.9%. In addition, the viability, T/C (compound 0.0949 µM) is 64.4% and 58.7% and 54.5%. The viability, T/C (compound 0.3 µM) is 39.5% and 34.5% and 32.4%. Besides, the viability, T/C (compound 0.949 µM) was 25.6% and 18.9% and 22.2%. The viability, T/C (compound 3 µM) was 15.2% and 10.5% and 13.3%.

For the compound `O=C(c1cc(Cc2n[nH]c(=O)c3ccccc23)ccc1F)N1CCN(C(=O)C2CC2)CC1`, the IC50 was greater than 10000 nM. The viability, T/C (compound 0.0316 µM) is 110% and 97.3% and 99.3%. In addition, under “compound 0.1 µM”, the viability, T/C was 110% and 100% and 95.6%. In addition, the viability, T/C (compound 0.316 µM) was 95.5% and 93.5% and 84.8%. In addition, the viability, T/C (compound 1 µM) is 98.6% and 97.8% and 91.6%. The viability, T/C (compound 3.16 µM) was 102% and 92.5% and 83.3%. Besides, under “compound 10 µM”, the viability, T/C is 80% and 74.5% and 68%.

The term viability, T/C denotes the ratio of treated to control. In general, IC50 refers to the concentration needed to halve the response being measured.

Values taken from PubChem BioAssay AID1918994 (Molecular Pharmacology Branch, DTP, NCI, 2023).
